# Laboratory results reported in ChEMBL document CHEMBL1201862, “PubChem BioAssay data set” (2004).
#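 Grown in 96-well plates, cells were treated for 48 hours with each compound at five concentrations. Insufficient inhibition: endpoint recorded as highest concentration tested. At the GI50, growth is halved.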 The source made the active and inactive calls. Rule as the data show it: active = GI50 up to about 1.1 µM and inactive = higher.
# Columns and labels:
# Experiment in all cases: NCI-60 cell line screen, 48 h
# [1] = system: TK-10
# [2] = system: MDA-N
# [3] = system: SF-268
# [4] = system: SK-OV-3
# [5] = system: M14
# [6] = system: T47D
# [7] = system: UO-31
# [8] = system: OVCAR-5
# [9] = system: OVCAR-3
# [10] = system: SNB-19
# [11] = system: NCI-H23
# [12] = system: A549
# [13] = system: HT-29
# [14] = system: HCT-116
# [15] = system: OVCAR-4
# [16] = system: CCRF-CEM
# [17] = system: SK-MEL-5
# [18] = system: UACC-257
# [19] = system: SNB-75
# [20] = system: PC-3
# [21] = system: HOP-92
# [22] = system: NCI-H226
# [23] = system: SK-MEL-28
# [24] = system: MCF7
# [25] = system: NCI-H522
# [26] = system: SN12C
# [27] = system: K562
# [28] = system: 786-0
# [29] = system: EKVX
# [30] = system: MDA-MB-435
# [31] = system: HCC 2998
# [32] = system: SW-620
# [33] = system: NCI-H460
# [34] = system: A498
# [35] = system: ACHN
# [36] = system: DU-145
# [37] = system: COLO 205
# [38] = system: BT-549
# [39] = system: LOX IMVI
# [40] = system: SK-MEL-2
# [41] = system: SF-295
# [42] = system: HL-60
# [43] = system: RPMI-8226
# [44] = system: HOP-62
# [45] = system: MDA-MB-231
# [46] = system: IGROV-1
# [47] = system: CAKI-1
# [48] = system: OVCAR-8
# [49] = system: MOLT-4
# [50] = system: Malme-3M
# [51] = system: UACC-62
# [52] = system: SF-539
# [53] = system: RXF 393
# [54] = system: U-251
# [55] = system: KM12
# [56] = system: Hs-578T
# [57] = system: HCT-15
# [58] = system: NCI/ADR-RES
compound,measurement,setting,value
CN/C(=N\N=C1/C(=O)Nc2ccccc21)SCC(=O)c1ccc(Br)cc1,GI50,[1],15 µM (inactive)
same,GI50,[2],21.3 µM (inactive)
same,GI50,[3],18.6 µM (inactive)
same,GI50,[4],9.04 µM (inactive)
same,GI50,[5],11.7 µM (inactive)
same,GI50,[6],9.48 µM (inactive)
same,GI50,[7],1.04 µM (active)
same,GI50,[8],32 µM (inactive)
same,GI50,[9],7.08 µM (inactive)
same,GI50,[10],32.4 µM (inactive)
same,GI50,[11],15.6 µM (inactive)
same,GI50,[12],5.01 µM (inactive)
same,GI50,[13],8.59 µM (inactive)
same,GI50,[14],4.53 µM (inactive)
same,GI50,[15],21.5 µM (inactive)
same,GI50,[16],5.46 µM (inactive)
same,GI50,[17],22.9 µM (inactive)
same,GI50,[18],7.66 µM (inactive)
same,GI50,[19],8.47 µM (inactive)
same,GI50,[20],10.3 µM (inactive)
same,GI50,[21],20.7 µM (inactive)
same,GI50,[22],25.4 µM (inactive)
same,GI50,[23],15 µM (inactive)
same,GI50,[24],3.48 µM (inactive)
same,GI50,[25],15.5 µM (inactive)
same,GI50,[26],12.5 µM (inactive)
same,GI50,[27],20.5 µM (inactive)
same,GI50,[28],5.61 µM (inactive)
same,GI50,[29],22.3 µM (inactive)
same,GI50,[30],9.57 µM (inactive)
same,GI50,[31],5.26 µM (inactive)
same,GI50,[32],2.42 µM (inactive)
same,GI50,[33],10.2 µM (inactive)
same,GI50,[34],17.4 µM (inactive)
same,GI50,[35],15.5 µM (inactive)
same,GI50,[36],6.82 µM (inactive)
same,GI50,[37],41.8 µM (inactive)
same,GI50,[38],68.1 µM (inactive)
same,GI50,[39],8.38 µM (inactive)
same,GI50,[40],50 µM (inactive)
same,GI50,[41],18.7 µM (inactive)
same,GI50,[42],3.48 µM (inactive)
same,GI50,[43],5.58 µM (inactive)
same,GI50,[44],5.19 µM (inactive)
same,GI50,[45],5.81 µM (inactive)
same,GI50,[46],31.1 µM (inactive)
same,GI50,[47],28.8 µM (inactive)
same,GI50,[48],8.53 µM (inactive)
same,GI50,[49],2.86 µM (inactive)
same,GI50,[50],13.5 µM (inactive)
same,GI50,[51],50.1 µM (inactive)
same,GI50,[52],6.38 µM (inactive)
same,GI50,[53],5.04 µM (inactive)
same,GI50,[54],5.21 µM (inactive)
same,GI50,[55],7.53 µM (inactive)
same,GI50,[56],10.9 µM (inactive)
same,GI50,[57],17.2 µM
same,GI50,[58],6.9 µM (inactive)
